Results as given in patent publication US20240226343A1, “NEUROPEPTIDE Y1 RECEPTOR (NPY1R) TARGETED THERAPEUTICS AND USES THEREOF” (RADIONETICS ONCOLOGY, INC., priority 2022, published 2024).

The molecules below were run against T1, hNPY1R (Homo sapiens, UniProt P25929) (assay: NPY1R binding assay: SK-N-MC membranes, [125I]-Peptide YY (human) competition). Details: data obtained after 60 minutes at 37° C.; SK-N-MC membranes; [125I]-Peptide YY 0.05 nM; read-out: hNPY1R binding Ki* †.
T1 construct: SK-N-MC cells endogenously expressing the NPY1R receptor; endogenous in cells; host or cells: SK-N-MC cells (crude membrane fractions)
T1 sequence (P25929 1-384): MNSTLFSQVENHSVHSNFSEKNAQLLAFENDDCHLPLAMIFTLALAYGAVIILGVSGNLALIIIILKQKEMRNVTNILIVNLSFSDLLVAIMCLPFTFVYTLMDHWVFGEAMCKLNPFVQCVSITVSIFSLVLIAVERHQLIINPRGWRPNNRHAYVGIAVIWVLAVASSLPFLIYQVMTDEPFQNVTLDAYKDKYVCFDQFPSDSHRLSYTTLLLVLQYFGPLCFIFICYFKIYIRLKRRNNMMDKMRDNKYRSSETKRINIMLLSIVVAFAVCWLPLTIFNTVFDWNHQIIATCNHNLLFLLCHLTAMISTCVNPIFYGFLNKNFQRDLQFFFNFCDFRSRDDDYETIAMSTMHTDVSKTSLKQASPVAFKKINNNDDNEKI
With `CCC(=O)NCCNC(=O)/N=C(/N)NCCC[C@@H](NC(=O)C(c1ccccc1)c1cccc(OCCOCCOCCOCCOCCNC(=O)CN2CCN(CC(=O)O)CCN(CC(=O)O)CCN(CC(=O)O)CC2)c1)C(=O)NCc1ccc(O)cc1` (single isomer, unassigned) [Compound 101A] the Ki was under 10 nM. Work on `CCC(=O)NCCNC(=O)/N=C(/N)NCCC[C@@H](NC(=O)C(c1ccccc1)c1ccc(NCCCNc2c(NCCNC(=O)CN3CCN(CC(=O)O)CCN(CC(=O)O)CCN(CC(=O)O)CC3)c(=O)c2=O)cc1)C(=O)NCc1ccc(O)cc1` (single isomer, unassigned) [Compound 124B] yielded a Ki of under 10 nM. `CCC(=O)NCCNC(=O)/N=C(/N)NCCC[C@@H](NC(=O)C(c1ccccc1)c1cccc(OCCOCCNC(=O)CN2CCN(CC(=O)O)CCN(CC(=O)O)CCN(CC(=O)O)CC2)c1)C(=O)NCc1ccc(O)cc1` (stereo partly drawn) [Compound 106, 2,2′,2″-(10-(2-((2-(2-(3-((4R,Z)-9-amino-4-((4-hydroxybenzyl)carbamoyl)-2,11,16-trioxo-1-phenyl-3,8,10,12,15-pentaazaoctadec-9-en-1-yl)phenoxy)ethoxy)ethyl)amino)-2-oxoethyl)-1,4,7,10-tetraazacyclododecane-1,4,7-triyl)triacetic acid] was tested, and the Ki was under 10 nM. With `CCC(=O)NCCNC(=O)/N=C(/N)NCCC[C@@H](NC(=O)C(c1ccccc1)c1cccc(OCCCCNC(=O)CN2CCN(C(=O)CN3CCN(CC(=O)O)CCN(CC(=O)O)CCN(CC(=O)O)CC3)CC2)c1)C(=O)NCc1ccc(O)cc1` (single isomer, unassigned) [Compound 118B] the Ki was under 10 nM. `CCC(=O)NCCNC(=O)/N=C(/N)NCCC[C@@H](NC(=O)C(c1ccccc1)c1cccc(OCCCCNc2c(NCCNC(=O)CN3CCN(CC(=O)O)CCN(CC(=O)O)CCN(CC(=O)O)CC3)c(=O)c2=O)c1)C(=O)NCc1ccc(O)cc1` (single isomer, unassigned) [Compound 111A] gave a Ki of under 10 nM. `CCC(=O)NCCNC(=O)/N=C(/N)NCCC[C@@H](NC(=O)C(c1ccccc1)c1ccc(NCCCNC(=O)CCOCCOCCNC(=O)CN2CCN(CC(=O)O)CCN(CC(=O)O)CCN(CC(=O)O)CC2)cc1)C(=O)NCc1ccc(O)cc1` (single isomer, unassigned) [Compound 103B] was tested, and the Ki was under 10 nM. Work on `CCC(=O)NCCNC(=O)/N=C(/N)NCCC[C@@H](NC(=O)C(c1ccccc1)c1cccc(OCCOCCOCCOCCOCCNC(=O)CN2CCN(CC(=O)O)CCN(CC(=O)O)CCN(CC(=O)O)CC2)c1)C(=O)NCc1ccc(CNC(N)=O)cc1` (single isomer, unassigned) [Compound 114B] yielded a Ki of 10 to 100 nM.

Same assay, conditions: data obtained after 120 minutes at rt; SK-N-MC membranes; [125I]-Peptide YY; read-out: hNPY.R binding Ki* ††
In the case of `CCC(=O)NCCNC(=O)/N=C(/N)NCCC[C@@H](NC(=O)C(c1ccccc1)c1cccc(NCCCNc2c(NCCNC(=O)CN3CCN(CC(=O)O)CCN(CC(=O)O)CCN(CC(=O)O)CC3)c(=O)c2=O)c1)C(=O)NCc1ccc(O)cc1` (single isomer, unassigned) [Compound 120A], the Ki is reported as under 10 nM. `CCC(=O)NCCNC(=O)/N=C(/N)NCCC[C@@H](NC(=O)C(c1ccccc1)c1ccc(NCCCNc2c(NCCNC(=O)CN3CCN(CC(=O)O)CCN(CC(=O)O)CCN(CC(=O)O)CC3)c(=O)c2=O)cc1)C(=O)NCc1ccc(O)cc1` (single isomer, unassigned) [Compound 124B] gave a Ki of under 10 nM. For `CCC(=O)NCCNC(=O)/N=C(/N)NCCC[C@@H](NC(=O)C(c1ccccc1)c1ccc(NCCCNc2c(NCCNC(=O)[C@@H](CN)NC(=O)CN3CCN(CC(=O)O)CCN(CC(=O)O)CCN(CC(=O)O)CC3)c(=O)c2=O)cc1)C(=O)NCc1ccc(O)cc1` (single isomer, unassigned) [Compound 137B], the Ki was under 10 nM. `CCC(=O)NCCNC(=O)/N=C(/N)NCCC[C@@H](NC(=O)C(c1ccccc1)c1cccc(OCCCCNC(=O)CCCCCNC(=O)CN2CCN(CC(=O)O)CCN(CC(=O)O)CCN(CC(=O)O)CC2)c1)C(=O)NCc1c(F)cc(O)cc1F` (single isomer, unassigned) [Compound 161B] gave a Ki of under 10 nM. In the case of `CCC(=O)NCCNC(=O)/N=C(/N)NCCC[C@@H](NC(=O)C(c1ccccc1)c1ccc(NCCCNC(=O)[C@H](N)CCCNC(=O)[C@@H](Cc2ccc(-c3ccccc3)cc2)NC(=O)CN2CCN(CC(=O)O)CCN(CC(=O)O)CCN(CC(=O)O)CC2)cc1)C(=O)NCc1ccc(O)cc1` (stereo partly drawn) [Compound 134B-In, indium (III) 2,2′,2″-(10-(2-(((R)-3-([1,1′-biphenyl]-4-yl)-1-(((R)-4-amino-5-((3-((4-((4R,Z)-9-amino-4-((4-hydroxybenzyl)carbamoyl)-2,11,16-trioxo-1-phenyl-3,8,10,12,15-pentaazaoctadec-9-en-1-yl)phenyl)amino)propyl)amino)-5-oxopentyl)amino)-1-oxopropan-2-yl)amino)-2-oxoethyl)-1,4,7,10-tetraazacyclododecane-1,4,7-triyl)triacetic acid], the Ki is reported as under 10 nM. For `CCC(=O)NCCNC(=O)/N=C(/N)NCCC[C@@H](NC(=O)C(c1ccccc1)c1ccc(NCCNC(=O)[C@H](N)CCCNC(=O)CN2CCN(CC(=O)O)CCN(CC(=O)O)CCN(CC(=O)O)CC2)cc1)C(=O)NCc1ccc(O)cc1` (single isomer, unassigned) [Compound 143B], the Ki was under 10 nM. Molecule `CCC(=O)NCCNC(=O)/N=C(/N)NCCC[C@@H](NC(=O)C(c1ccccc1)c1cccc(OCCCCNc2c(NCCONC(=O)CN3CCN(CC(=O)O)CCN(CC(=O)O)CCN(CC(=O)O)CC3)c(=O)c2=O)c1)C(=O)NCc1c(F)cc(O)cc1F` (single isomer, unassigned) [Compound 169] has a Ki of under 10 nM. Molecule `CCC(=O)NCCNC(=O)/N=C(/N)NCCC[C@@H](NC(=O)C(c1ccccc1)c1cccc(NCCCNc2c(NCCNC(=O)CN3CCN(CC(=O)O)CCN(CC(=O)O)CCN(CC(=O)O)CC3)c(=O)c2=O)c1)C(=O)NCc1ccc(O)cc1` (single isomer, unassigned) [Compound 120B] has a Ki of under 10 nM. For `CCC(=O)NCCNC(=O)/N=C(/N)NCCC[C@@H](NC(=O)C(c1ccccc1)c1cccc(OCCCCNC(=O)c2ccc(CNC(=O)CN3CCN(CC(=O)O)CCN(CC(=O)O)CCN(CC(=O)O)CC3)cc2)c1)C(=O)NCc1ccc(O)cc1` (stereo partly drawn) [Compound 123, 2,2′,2″-(10-(2-((4-((4-(3-((4R,Z)-9-amino-4-((4-hydroxybenzyl)carbamoyl)-2,11,16-trioxo-1-phenyl-3,8,10,12,15-pentaazaoctadec-9-en-1-yl)phenoxy)butyl)carbamoyl)benzyl)amino)-2-oxoethyl)-1,4,7,10-tetraazacyclododecane-1,4,7-triyl)triacetic acid], the Ki was under 10 nM. For `CCC(=O)NCCNC(=O)/N=C(/N)NCCC[C@@H](NC(=O)C(c1ccccc1)c1ccc(NCCCNC(=O)[C@H](N)CCC(=O)NCCN(C)CCNC(=O)CN2CCN(CC(=O)O)CCN(CC(=O)O)CCN(CC(=O)O)CC2)cc1)C(=O)NCc1ccc(O)cc1` (single isomer, unassigned) [Compound 145B], the Ki was under 10 nM. Work on `CCC(=O)NCCNC(=O)/N=C(/N)NCCC[C@@H](NC(=O)C(c1ccccc1)c1ccc(NCCCNC(=O)[C@H](N)CCCNC(=O)CN2CCC(NC(=O)CN3CCN(CC(=O)O)CCN(CC(=O)O)CCN(CC(=O)O)CC3)CC2)cc1)C(=O)NCc1ccc(O)cc1` (single isomer, unassigned) [Compound 146B] yielded a Ki of under 10 nM. `CCC(=O)NCCNC(=O)/N=C(/N)NCCC[C@@H](NC(=O)C(c1ccccc1)c1cccc(OCCCCNC(=O)C[C@H]2NC(=O)[C@@H](CCCNC(=O)CN3CCN(CC(=O)O)CCN(CC(=O)O)CCN(CC(=O)O)CC3)NC2=O)c1)C(=O)NCc1c(F)cc(O)cc1F` (single isomer, unassigned) [Compound 164B] was tested, and the Ki was under 10 nM. `CCC(=O)NCCNC(=O)/N=C(/N)NCCC[C@@H](NC(=O)C(c1ccccc1)c1ccc(NCCCNC(=O)[C@H](N)CCCNC(=O)CN2CCN(CC(=O)O)CCN(CC(=O)O)CCN(CC(=O)O)CC2)cc1)C(=O)NCc1ccc(O)cc1` (single isomer, unassigned) [Compound 135A] showed a Ki of under 10 nM.
